Consider 31 compounds from ChEMBL document CHEMBL1681749, “Antibacterial activities of imidazolium, pyrrolidinium and piperidinium salts” (2011).

The structures appear in SMILES notation.

By MIC is commonly meant the lowest concentration that inhibits growth of the organism. A lower MIC goes with a more susceptible organism.

Format in all cases: functional
Assay [1] relates to Staphylococcus aureus. The experiment in a line: Antibacterial activity against Staphylococcus aureus subsp. aureus NBRC 15035 by agar-dilution method.
The test system of assay [2] is Bacillus subtilis. The experiment in a line: Antibacterial activity against Bacillus subtilis 168 by agar-dilution method. The conditions noted are these: subsp. subtilis str. 168.
Assay [3] has as its system Pseudomonas putida. In words: Antibacterial activity against Pseudomonas putida NBRC 14164 by agar-dilution method.
For assay [4], the system named is Escherichia coli. The experiment in a line: Antibacterial activity against Escherichia coli MG1655 by agar-dilution method. Particulars: K-12 substr. MG1655.

`CCCCCC#CC[n+]1ccn(CCCCCCCCC)c1C.[I-]`: the MIC turned out to be 0.78 µg/mL in assay [1], 0.78 µg/mL in assay [2], 50 µg/mL in assay [3] and 12.5 µg/mL in assay [4].
On to `CCCCCC#CC[n+]1ccn(CCCCCCCCCC)c1C.[I-]`, for which the minimum inhibitory concentration (MIC) came to 0.39 µg/mL in assay [1], 0.78 µg/mL in assay [2], 50 µg/mL in assay [3] and 3.13 µg/mL in assay [4].
As to `CCCCCC#CC[n+]1ccn(CCCCCCCCCCC)c1C.[I-]`, the MIC turned out to be 0.39 µg/mL in assay [1], 0.39 µg/mL in assay [2], 50 µg/mL in assay [3] and 3.13 µg/mL in assay [4].
`CCCCCC#CC[n+]1ccn(CCCCCCCCCCCC)c1.[I-]`: the MIC in assay [1] came to 0.39 µg/mL; in assay [2], 0.39 µg/mL; in assay [3] it was 50 µg/mL; in assay [4], 25 µg/mL.
Turning to `CCCCCC#CC[n+]1ccn(CCCCCCCCCCCC)c1C.[I-]`, the MIC in assay [1] stood at 0.39 µg/mL; in assay [2] it was 0.39 µg/mL; in assay [3], 50 µg/mL; in assay [4], 6.25 µg/mL.
Consider `CCCCCC#CC[n+]1ccn(CCCCCCCCCCCCCC)c1C.[I-]`, for which the MIC was 0.78 µg/mL in assay [1], 0.78 µg/mL in assay [2], above 100 µg/mL in assay [3] and 100 µg/mL in assay [4].
With `CCCCCC#CC[n+]1ccn(CCCCCCCCCCCCCCCC)c1C.[I-]`, the MIC in assay [1] was 1.56 µg/mL; in assay [2] it was 1.56 µg/mL; in assay [3] it was above 100 µg/mL; in assay [4] it was above 100 µg/mL.
As for `CCCCCC#CC[n+]1ccn(CCCC[Si](C)(C)C)c1.[I-]`, the minimum inhibitory concentration (MIC) was determined as 3.13 µg/mL in assay [1], 1.56 µg/mL in assay [2], 100 µg/mL in assay [3] and 50 µg/mL in assay [4].
The corresponding values for `CCCCCC#CC[n+]1ccn(CCCC[Si](C)(C)C)c1C.[I-]` are 1.56 µg/mL, 1.56 µg/mL, 100 µg/mL and 50 µg/mL.
The corresponding values for `CCCCCC#CC[n+]1ccn(CCCCC[Si](C)(C)C)c1.[I-]` are 0.78 µg/mL, 0.39 µg/mL, 100 µg/mL and 25 µg/mL.
The corresponding values for `CCCCCC#CC[n+]1ccn(CCCCC[Si](C)(C)C)c1C.[I-]` are 0.39 µg/mL, 0.39 µg/mL, 50 µg/mL and 12.5 µg/mL.
For `CCCCCC#CC[n+]1ccn(CCCCCC[Si](C)(C)C)c1C.[I-]`, the minimal inhibitory concentration (MIC) in assay [1] stood at 0.39 µg/mL; in assay [2], 0.39 µg/mL; in assay [3], 50 µg/mL; in assay [4], 12.5 µg/mL.
As for `CCCCCC#CC[n+]1ccn(CCCCCCC[Si](C)(C)C)c1.[I-]`, the MIC came to 0.78 µg/mL in assay [1], 0.39 µg/mL in assay [2], 100 µg/mL in assay [3] and 25 µg/mL in assay [4].
For `CCCCCC#CC[n+]1ccn(CCCCCCC[Si](C)(C)C)c1C.[I-]`, the minimal inhibitory concentration (MIC) in assay [1] is 0.39 µg/mL; in assay [2], 0.39 µg/mL; in assay [3] it was 100 µg/mL; in assay [4] it was 12.5 µg/mL.
On to `CCCCCC#CC[n+]1ccn(CCCCCCCCC[Si](C)(C)C)c1.[I-]`, for which the MIC was 0.78 µg/mL in assay [1], 0.39 µg/mL in assay [2], above 100 µg/mL in assay [3] and 100 µg/mL in assay [4].
The corresponding values for `CCCCCC#CC[n+]1ccn(CCCCCCCCC[Si](C)(C)C)c1C.[I-]` are 0.78 µg/mL, 0.39 µg/mL, 100 µg/mL and 100 µg/mL.
The corresponding values for `CCCCCC#CC[n+]1ccn(CCCCCCCCCCC[Si](C)(C)C)c1C.[I-]` are 1.56 µg/mL, 1.56 µg/mL, above 100 µg/mL and above 100 µg/mL.
For `CCCCCC#CC[N+]1(C)CCCC1.[I-]`, in that order: above 50 µg/mL, above 50 µg/mL, above 50 µg/mL and above 50 µg/mL.
On to `CCCCCC#CC[N+]1(CCCCC[Si](C)(C)C)CCCC1.[I-]`, for which the MIC in assay [1] was 1.56 µg/mL; in assay [2], 1.56 µg/mL; in assay [3] it was above 50 µg/mL; in assay [4], above 50 µg/mL.
Regarding `CCCCCC#CC[N+]1(C)CCCCC1.[I-]`, the minimal inhibitory concentration (MIC) in assay [1], in assay [2], in assay [3] and in assay [4] was above 50 µg/mL each time.
Take `CCCCCC#CC[N+]1(CCCCC[Si](C)(C)C)CCCCC1.[I-]`: the minimal inhibitory concentration (MIC) in assay [1] turned out to be 1.56 µg/mL; in assay [2], 1.56 µg/mL; in assay [3], 100 µg/mL; in assay [4], 50 µg/mL.
`C#CC[n+]1ccn(CCCC[Si](C)(C)C)c1.[I-]`: the MIC in assay [1] was 100 µg/mL; in assay [2], above 100 µg/mL; in assay [3] it was above 100 µg/mL; in assay [4] it was above 100 µg/mL.
On to `CCCCCCCC[n+]1ccn(CCCC[Si](C)(C)C)c1.[I-]`, for which the minimum inhibitory concentration (MIC) is 3.13 µg/mL in assay [1], 1.56 µg/mL in assay [2], above 100 µg/mL in assay [3] and 50 µg/mL in assay [4].
For `C[Si](C)(C)CCCCn1cc[n+](-c2ccc(-c3ccccc3)cc2)c1.[I-]`, in that order: 0.39 µg/mL, 1.56 µg/mL, 100 µg/mL and 100 µg/mL.
With `CCCCCc1ccc(-[n+]2ccn(CCCC[Si](C)(C)C)c2)cc1.[I-]`, the MIC is 0.39 µg/mL in assay [1], 0.39 µg/mL in assay [2], 100 µg/mL in assay [3] and 50 µg/mL in assay [4].
`C[Si](C)(C)CCCCn1cc[n+](Cc2ccc(CC[Si](C)(C)C)cc2)c1.[I-]`: the MIC in assay [1] is 0.39 µg/mL; in assay [2], 0.39 µg/mL; in assay [3] it was 100 µg/mL; in assay [4] it was above 100 µg/mL.
In the case of `C[Si](C)(C)CCCCCn1cc[n+](Cc2ccc(CC[Si](C)(C)C)cc2)c1.[I-]`, the MIC in assay [1] is 0.78 µg/mL; in assay [2], 0.78 µg/mL; in assay [3], above 100 µg/mL; in assay [4], above 100 µg/mL.
In the case of `C[Si](C)(C)CCCCCCn1cc[n+](Cc2ccc(CC[Si](C)(C)C)cc2)c1.[I-]`, the minimal inhibitory concentration (MIC) in assay [1] is 1.56 µg/mL; in assay [2], 1.56 µg/mL; in assay [3] it was above 100 µg/mL; in assay [4] it was above 100 µg/mL.
For `C[Si](C)(C)CCCCCCCn1cc[n+](Cc2ccc(CC[Si](C)(C)C)cc2)c1.[I-]`, the MIC in assay [1] was 1.56 µg/mL; in assay [2], 1.56 µg/mL; in assay [3] it was above 100 µg/mL; in assay [4], above 100 µg/mL.
As for `C[Si](C)(C)CCCCCCCCCn1cc[n+](Cc2ccc(CC[Si](C)(C)C)cc2)c1.[I-]`, the MIC in assay [1] was above 6.25 µg/mL; in assay [2] it was 6.25 µg/mL; in assay [3] it was above 100 µg/mL; in assay [4], above 100 µg/mL.
On to `CCCCCCCCCCCCCCCC[n+]1ccn(Cc2ccccc2)c1C.[I-]`, for which the figures for the MIC in assay [2] and in assay [4] were 1.56 µg/mL and 3.13 µg/mL, respectively.
